Experimental data reported in US6737383B1, “Herbicidal oxadiazolidines” (priority 1999, dated 2004).

Columns and labels:
duck salad = assay: Test B flood test duck salad; assay type: in vivo, Heteranthera limosa
How it was run: (§1)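 Read-out is a visual response score from 0 (no effect) to 10 (complete control), assigned by comparison with untreated controls. Treatment was applied at the 2-leaf stage, and plants stayed in the greenhouse for twelve to sixteen days before scoring.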

morningglory = assay: Test B pre/postemergence morningglory; assay type: in vivo, Ipomoea hederacea
How it was run: (§2)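 Test chemicals in a non-phytotoxic solvent mixture with surfactant were sprayed preemergence onto planted seeds and postemergence onto plants 2 to 18 cm tall (1- to 4-leaf stage). After twelve to sixteen days in a greenhouse, injury was visually rated against untreated controls from 0 (no effect) to 10 (complete control).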

cocklebur = assay: Test B pre/postemergence cocklebur; assay type: in vivo, Xanthium strumarium
How it was run: as §2

wild oat = assay: Test B pre/postemergence wild oat; assay type: in vivo, Avena fatua
How it was run: as §2

rice = assay: Test B flood test rice; assay type: in vivo, Oryza sativa
How it was run: as §1

wheat = assay: Test B pre/postemergence wheat; assay type: in vivo, Triticum aestivum
How it was run: as §2

sugar beet = assay: Test B pre/postemergence sugar beet; assay type: in vivo, Beta vulgaris
How it was run: as §2

surinam grass = assay: Test B pre/postemergence surinam grass; assay type: in vivo, Brachiaria decumbens
How it was run: as §2

velvetleaf = assay: Test B pre/postemergence velvetleaf; assay type: in vivo, Abutilon theophrasti
How it was run: as §2

rape = assay: Test B pre/postemergence rape; assay type: in vivo, Brassica napus
How it was run: as §2

pigweed = assay: Test B pre/postemergence pigweed; assay type: in vivo, Amaranthus retroflexus
How it was run: as §2

smallflower flatsedge = assay: Test B flood test smallflower flatsedge; assay type: in vivo, Cyperus difformis
How it was run: as §1

corn = assay: Test B pre/postemergence corn; assay type: in vivo, Zea mays
How it was run: as §2

giant foxtail = assay: Test B pre/postemergence giant foxtail; assay type: in vivo, Setaria faberii
How it was run: as §2

blackgrass = assay: Test B pre/postemergence blackgrass; assay type: in vivo, Alopecurus myosuroides
How it was run: as §2

soybean = assay: Test B pre/postemergence soybean; assay type: in vivo, Glycine max
How it was run: as §2

[1] = Rate 62 g/ha, flood test species, Pre-emergence, visual evaluation after twelve to sixteen days
[2] = Rate 125 g/ha, under heading Pre-emergence, flood test species, visual evaluation after twelve to sixteen days
[3] = Rate 250 g/ha, Pre-emergence (flood test species), scale 0 to 10, 0 is no effect, 10 is complete control
[4] = Rate 500 g/ha, Pre-emergence, flood test species, scale 0 to 10 (0 no effect, 10 complete control)
[5] = Postemergence, Rate 250 g/ha, scale 0 to 10
[6] = Postemergence, Rate 500 g/ha, scale of 0 to 10 where 0 is no effect and 10 is complete control
[7] = Preemergence, Rate 62 g/ha, scale of 0 to 10 where 0 is no effect and 10 is complete control
[8] = Preemergence, Rate 125 g/ha, scale of 0 to 10 where 0 is no effect and 10 is complete control
[9] = Preemergence, Rate 250 g/ha, scale 0 to 10, 0 is no effect, 10 is complete control
[10] = Preemergence, Rate 500 g/ha, scale 0 to 10, 0 is no effect, 10 is complete control
[11] = Rate 62 g/ha, Postemergence, scale 0 to 10 (0 no effect, 10 complete control)
[12] = Rate 125 g/ha, Postemergence, scale 0 to 10, 0 is no effect, 10 is complete control

COC(C)n1c(=O)on(C(=O)N(c2ccccc2)C(C)C)c1=O (centres unmarked) [Compound 441]
0: Plant response rating, Ducksalad (0 to 10 scale, 0 is no effect, 10 is complete control) (duck salad; [1]) | Ducksalad plant response rating (0 to 10 scale, 0 is no effect, 10 is complete control) (duck salad; [2]) | Ducksalad plant response rating (duck salad; [3]) | Ducksalad plant response rating (duck salad; [4]) | Morningglory plant response rating (morningglory; [5]) | Morningglory plant response rating (morningglory; [6]) | Plant response rating, Morningglory (morningglory; [7]) | Plant response rating, Morningglory (morningglory; [8]) | Morningglory plant response rating (morningglory; [9]) | Morningglory plant response rating (morningglory; [10]) | Morningglory plant response rating (morningglory; [11]) | Morningglory plant response rating (morningglory; [12]) | Cocklebur plant response rating (cocklebur; [5]) | Cocklebur plant response rating (cocklebur; [6]) | Plant response rating, Cocklebur (cocklebur; [7]) | Plant response rating, Cocklebur (cocklebur; [8]) | Cocklebur plant response rating (cocklebur; [9]) | Cocklebur plant response rating (cocklebur; [10]) | Cocklebur plant response rating (cocklebur; [11]) | Cocklebur plant response rating (cocklebur; [12]) | Wild oats plant response rating (wild oat; [5]) | Wild oats plant response rating (wild oat; [6]) | Plant response rating, Wild oats (wild oat; [7]) | Plant response rating, Wild oats (wild oat; [8]) | Wild oats plant response rating (wild oat; [9]) | Wild oats plant response rating (wild oat; [10]) | Wild oats plant response rating (wild oat; [11]) | Wild oats plant response rating (wild oat; [12]) | Plant response rating, Rice (0 to 10 scale, 0 is no effect, 10 is complete control) (rice; [1]) | Rice plant response rating (0 to 10 scale, 0 is no effect, 10 is complete control) (rice; [2]) | Rice plant response rating (rice; [3]) | Rice plant response rating (rice; [4]) | Wheat plant response rating (wheat; [5]) | Wheat plant response rating (wheat; [6]) | Plant response rating, Wheat (wheat; [7]) | Plant response rating, Wheat (wheat; [8]) | Wheat plant response rating (wheat; [9]) | Wheat plant response rating (wheat; [10]) | Wheat plant response rating (wheat; [11]) | Wheat plant response rating (wheat; [12]) | Sugarbeets plant response rating (sugar beet; [5]) | Sugarbeets plant response rating (sugar beet; [6]) | Plant response rating, Sugarbeets (sugar beet; [7]) | Plant response rating, Sugarbeets (sugar beet; [8]) | Sugarbeets plant response rating (sugar beet; [9]) | Sugarbeets plant response rating (sugar beet; [10]) | Sugarbeets plant response rating (sugar beet; [11]) | Sugarbeets plant response rating (sugar beet; [12]) | B. signalgrass plant response rating (surinam grass; Postemergence, Rate 250 g/ha, scale 0 to 10, 0 no effect, 10 complete control) | B. signalgrass plant response rating (surinam grass; [6]) | Plant response rating, B. signalgrass (surinam grass; [7]) | Plant response rating, B. signalgrass (surinam grass; [8]) | B. signalgrass plant response rating (surinam grass; [9]) | B. signalgrass plant response rating (surinam grass; [10]) | B. signalgrass plant response rating (surinam grass; [11]) | B. signalgrass plant response rating (surinam grass; [12]) | Velvetleaf plant response rating (velvetleaf; [5]) | Velvetleaf plant response rating (velvetleaf; [6]) | Plant response rating, Velvetleaf (velvetleaf; [7]) | Plant response rating, Velvetleaf (velvetleaf; [8]) | Velvetleaf plant response rating (velvetleaf; [9]) | Velvetleaf plant response rating (velvetleaf; [10]) | Velvetleaf plant response rating (velvetleaf; [11]) | Velvetleaf plant response rating (velvetleaf; [12]) | Rape plant response rating (rape; [5]) | Rape plant response rating (rape; [6]) | Plant response rating, Rape (rape; [7]) | Plant response rating, Rape (rape; [8]) | Rape plant response rating (rape; [9]) | Rape plant response rating (rape; [10]) | Rape plant response rating (rape; [11]) | Rape plant response rating (rape; [12]) | Redroot pigweed plant response rating (pigweed; [5]) | Redroot pigweed plant response rating (pigweed; [6]) | Plant response rating, Redroot pigweed (pigweed; [7]) | Plant response rating, Redroot pigweed (pigweed; [8]) | Redroot pigweed plant response rating (pigweed; [9]) | Redroot pigweed plant response rating (pigweed; [10]) | Redroot pigweed plant response rating (pigweed; [11]) | Redroot pigweed plant response rating (pigweed; [12]) | Plant response rating, S. Flatsedge (0 to 10 scale, 0 is no effect, 10 is complete control) (smallflower flatsedge; [1]) | S. Flatsedge plant response rating (0 to 10 scale, 0 is no effect, 10 is complete control) (smallflower flatsedge; [2]) | S. Flatsedge plant response rating (smallflower flatsedge; [3]) | S. Flatsedge plant response rating (smallflower flatsedge; [4]) | Corn plant response rating (corn; [5]) | Corn plant response rating (corn; [6]) | Plant response rating, Corn (corn; [7]) | Plant response rating, Corn (corn; [8]) | Corn plant response rating (corn; [9]) | Corn plant response rating (corn; [10]) | Corn plant response rating (corn; [11]) | Corn plant response rating (corn; [12]) | Giant foxtail plant response rating (giant foxtail; [5]) | Giant foxtail plant response rating (giant foxtail; [6]) | Plant response rating, Giant foxtail (giant foxtail; [7]) | Plant response rating, Giant foxtail (giant foxtail; [8]) | Giant foxtail plant response rating (giant foxtail; [9]) | Giant foxtail plant response rating (giant foxtail; [10]) | Giant foxtail plant response rating (giant foxtail; [11]) | Giant foxtail plant response rating (giant foxtail; [12]) | Blackgrass plant response rating (blackgrass; [5]) | Blackgrass plant response rating (blackgrass; [6]) | Plant response rating, Blackgrass (blackgrass; [7]) | Plant response rating, Blackgrass (blackgrass; [8]) | Blackgrass plant response rating (blackgrass; [9]) | Blackgrass plant response rating (blackgrass; [10]) | Blackgrass plant response rating (blackgrass; [11]) | Blackgrass plant response rating (blackgrass; [12]) | Soybean plant response rating (soybean; [5]) | Soybean plant response rating (soybean; [6]) | Plant response rating, Soybean (soybean; [7]) | Plant response rating, Soybean (soybean; [8]) | Soybean plant response rating (soybean; [9]) | Soybean plant response rating (soybean; [10]) | Soybean plant response rating (soybean; [11]) | Soybean plant response rating (soybean; [12])
